Source: US11834679B2, “Method for producing cardiomyocytes” (KATAOKA CORPORATION, priority 2018, dated 2023)

System: human fibroblasts
Experiment: Direct induction from human fibroblasts to cardiomyocytes (microscopic observation of morphology and pulsation)
Type: cell-based
Method: The human fibroblasts used as the material were purchased from DS Pharma Biomedical Co., Ltd. The fibroblasts are derived from human skin. The human fibroblasts were seeded in 8×10^4 portions in 35-mm dishes coated with gelatin (Cat #: 190-15805, manufactured by Wako Pure Chemical Co.) and cultured in DMEM high glucose medium (manufactured by Gibco) supplemented with 10% fetal bovine serum (Fetal bovine serum; FBS), 100 U/mL penicillin, and 100 μg/mL streptomycin for 2 days at 37° C. under 5% CO2 conditions (80-90% or more confluent). DMEM denotes Dulbecco's Modified Eagle Medium (Dulbecco's Modified Eagle Medium). The medium of dishes of the human fibroblasts described above was replaced with a medium of DMEM (High Glucose with L-Glutamine Phenol Red, and Sodium Pyruvate) (manufactured by Gibco) having 20% fetal bovine serum (FBS), 2% B27-supplement (manufactured by Gibco), 1% N2 (manufactured by Gibco), non-essential amino acids (NEAA: manufactured by Gibco), β-mercaptoethanol (manufactured by Nacalai Tesque; final concentration of 0.1 mmol/L), 2-phospho ascorbic acid (manufactured by Sigma-Aldrich; final concentration of 50 μg/mL), 100 U/mL penicillin, 100 μg/mL streptomycin, and low molecular weight compounds described below. […] This was assessed by observing cell clumps that contract spontaneously and periodically under a microscope. […]

O=C(NOC[C@H](O)CO)c1ccc(F)c(F)c1Nc1ccc(I)cc1F [Ex. A, PD0325901]
appearance of spontaneously contracting (myocardial) cell clumps (Tables 1-2, FIGS. 1-6, culture day 7 to 17): low in frequency
Induction efficiency (Morphology, pulsation) (human skin fibroblasts cultured with the compound combination, grades ⊚, ◯, Δ, X not defined): Δ
